{"source": "patent US20230174649A1", "about": "“PHARMACEUTICAL COMPOSITIONS CONTAINING ANTI-CD47 ANTIBODIES” (I-MAB BIOPHARMA US LIMITED, priority 2020, published 2023)", "assay_type_in_all_cases": "cell-based, Human", "key": {"[1]": {"system": "macrophages", "test": "Macrophage Viability Assay (CellTiter-Glo)", "settings": "for Macrophage viability (CellTiter-Glo Luminescent Cell Viability Assay): 16 hours, three replicate lines", "method": "Then, the monocytes isolated by MACS were subsequently cultured in fresh complete medium supplemented with recombinant human granulocyte-macrophage colony-stimulating factor GM-CSF (50 ng/ml) and human recombinant IL-4 (35 ng/ml) to activate differentiated macrophages. After 6 days of culture (on day 7), cells were harvested, pooled together and counted for next use.\nThe cells from Example 2 were plated into a 96-well flat bottom plate at a density of 0.05×10^6 cells/well. After 2 hours of incubation, the macrophages were well attached to the plate. Then selected small molecule therapeutic agents were added to the well and cocultured for 16 hours. On day 8, macrophage viability was assessed by CellTiter-Glo® Luminescent Cell Viability Assay, according to the manufacture's instruction."}, "[2]": {"system": "CD47", "test": "FACS analysis of expression level of CD47 on tumor cell surface", "settings": "Toledo cells, 12 hours", "method": "(§1) For FACS analysis, on the day of analysis (day 1), Toledo cells were seeded into 96 well plate and cultured at a density of 0.2×10^6 cells/well. Then the cells were treated with the selected small molecule therapeutic agents for 12 hours.\n(§2) On day 2, cells were harvested, washed twice and then re-suspended in 100 uL FACS buffer subject to FACS analysis. For detection of the expression of calreticulin and CD47, cells were incubated with anti-calreticulin antibody and commercially available anti-CD47 antibody (BD Biosciences, Catalog number: 561249) in dark at 4° C. for 30 mins.\n(§3) Then, the cells were subject to FACS analysis. Data was acquired and analyzed."}, "[3]": {"system": "Calreticulin", "test": "FACS analysis of expression level of calreticulin on tumor cell surface", "settings": "Toledo cells, 12 hours", "method": "as §1, §2, §3"}}, "note": "Where “and” joins values, the source holds several entries; their conditions need not be identical. Equal values may be shown once.", "data": [{"smiles": "C[C@H](Nc1ncnc2nc[nH]c12)c1cc2cccc(Cl)c2c(=O)n1-c1ccccc1", "note": "[Duvelisib]", "values": [{"measurement": "Macrophage viability (CellTiter-Glo Luminescent Cell Viability Assay)", "setting": "[1]; Cpd 0.002 uM", "value": "5688 and 5876 and 6184"}, {"measurement": "Macrophage viability (CellTiter-Glo Luminescent Cell Viability Assay)", "setting": "[1]; Cpd 0.008 uM", "value": "5484 and 5444 and 5664"}, {"measurement": "Macrophage viability (CellTiter-Glo Luminescent Cell Viability Assay)", "setting": "[1]; Cpd 0.04 uM", "value": "5228 and 5348 and 5760"}, {"measurement": "Macrophage viability (CellTiter-Glo Luminescent Cell Viability Assay)", "setting": "[1]; Cpd 0.2 uM", "value": "5028 and 4984 and 5264"}, {"measurement": "Macrophage viability (CellTiter-Glo Luminescent Cell Viability Assay)", "setting": "[1]; Cpd 1 uM", "value": "4592 and 4776 and 4880"}, {"measurement": "Macrophage viability (CellTiter-Glo Luminescent Cell Viability Assay)", "setting": "[1]; Cpd 5 uM", "value": "4464 and 4584 and 4404"}, {"measurement": "Macrophage viability (CellTiter-Glo Luminescent Cell Viability Assay)", "setting": "[1]; Cpd 25 uM", "value": "4176 and 4276 and 4156"}, {"measurement": "Macrophage viability (CellTiter-Glo Luminescent Cell Viability Assay)", "setting": "[1]; Cpd 50 uM", "value": "3972 and 3992 and 3860"}, {"measurement": "toxicity to macrophages", "setting": "[1]; dose of 0.1-50 μM", "value": "obvious toxicity"}, {"measurement": "Mean Fluorescence Intensity (MFI) CD47", "setting": "[2]; 0.008 uM", "value": 8368}, {"measurement": "Mean Fluorescence Intensity (MFI) CD47", "setting": "[2]; 0.04 uM", "value": 8376}, {"measurement": "Mean Fluorescence Intensity (MFI) CD47", "setting": "[2]; 0.2 uM", "value": 8471}, {"measurement": "Mean Fluorescence Intensity (MFI) CD47", "setting": "[2]; 1 uM", "value": 8432}, {"measurement": "Mean Fluorescence Intensity (MFI) CD47", "setting": "[2]; 5 uM", "value": 8482}, {"measurement": "Mean Fluorescence Intensity (MFI) Calreticulin", "setting": "[3]; 0.008 uM", "value": 71.4}, {"measurement": "Mean Fluorescence Intensity (MFI) Calreticulin", "setting": "[3]; 0.04 uM", "value": 71.2}, {"measurement": "Mean Fluorescence Intensity (MFI) Calreticulin", "setting": "[3]; 0.2 uM", "value": 71.4}, {"measurement": "Mean Fluorescence Intensity (MFI) Calreticulin", "setting": "[3]; 1 uM", "value": 75.7}, {"measurement": "Mean Fluorescence Intensity (MFI) Calreticulin", "setting": "[3]; 5 uM", "value": 75.9}]}, {"smiles": "C=CC(=O)N1CCC[C@@H](n2nc(-c3ccc(Oc4ccccc4)cc3)c3c(N)ncnc32)C1", "note": "[Ibrutinib]", "values": [{"measurement": "Macrophage viability (CellTiter-Glo Luminescent Cell Viability Assay)", "setting": "[1]; Cpd 0.002 uM", "value": "4948 and 4988 and 5520"}, {"measurement": "Macrophage viability (CellTiter-Glo Luminescent Cell Viability Assay)", "setting": "[1]; Cpd 0.008 uM", "value": "4880 and 5316 and 5780"}, {"measurement": "Macrophage viability (CellTiter-Glo Luminescent Cell Viability Assay)", "setting": "[1]; Cpd 0.04 uM", "value": "4688 and 5488 and 5780"}, {"measurement": "Macrophage viability (CellTiter-Glo Luminescent Cell Viability Assay)", "setting": "[1]; Cpd 0.2 uM", "value": "4932 and 5736 and 6152"}, {"measurement": "Macrophage viability (CellTiter-Glo Luminescent Cell Viability Assay)", "setting": "[1]; Cpd 1 uM", "value": "5056 and 5624 and 6224"}, {"measurement": "Macrophage viability (CellTiter-Glo Luminescent Cell Viability Assay)", "setting": "[1]; Cpd 5 uM", "value": "4864 and 5828 and 6004"}, {"measurement": "Macrophage viability (CellTiter-Glo Luminescent Cell Viability Assay)", "setting": "[1]; Cpd 25 uM", "value": "4680 and 5100 and 5572"}, {"measurement": "Macrophage viability (CellTiter-Glo Luminescent Cell Viability Assay)", "setting": "[1]; Cpd 50 uM", "value": "3732 and 4296 and 4508"}, {"measurement": "toxicity to macrophages", "setting": "[1]; dose as high as 50 μM", "value": "showed toxicity"}, {"measurement": "toxicity to macrophages", "setting": "[1]; dose lower than 10 μM", "value": "little toxic"}, {"measurement": "Mean Fluorescence Intensity (MFI) CD47", "setting": "[2]; 0.008 uM", "value": 8453}, {"measurement": "Mean Fluorescence Intensity (MFI) CD47", "setting": "[2]; 0.04 uM", "value": 8490}, {"measurement": "Mean Fluorescence Intensity (MFI) CD47", "setting": "[2]; 0.2 uM", "value": 8415}, {"measurement": "Mean Fluorescence Intensity (MFI) CD47", "setting": "[2]; 1 uM", "value": 8345}, {"measurement": "Mean Fluorescence Intensity (MFI) CD47", "setting": "[2]; 5 uM", "value": 8345}, {"measurement": "Mean Fluorescence Intensity (MFI) Calreticulin", "setting": "[3]; 0.008 uM", "value": 70.6}, {"measurement": "Mean Fluorescence Intensity (MFI) Calreticulin", "setting": "[3]; 0.04 uM", "value": 73.1}, {"measurement": "Mean Fluorescence Intensity (MFI) Calreticulin", "setting": "[3]; 0.2 uM", "value": 74.5}, {"measurement": "Mean Fluorescence Intensity (MFI) Calreticulin", "setting": "[3]; 1 uM", "value": 69.9}, {"measurement": "Mean Fluorescence Intensity (MFI) Calreticulin", "setting": "[3]; 5 uM", "value": 79}]}, {"smiles": "CC[C@H](Nc1ncnc2[nH]cnc12)c1nc2cccc(F)c2c(=O)n1-c1ccccc1", "note": "[Idelalisib]", "values": [{"measurement": "Macrophage viability (CellTiter-Glo Luminescent Cell Viability Assay)", "setting": "[1]; Cpd 0.002 uM", "value": "5888 and 5908 and 5980"}, {"measurement": "Macrophage viability (CellTiter-Glo Luminescent Cell Viability Assay)", "setting": "[1]; Cpd 0.008 uM", "value": "6164 and 6056 and 5948"}, {"measurement": "Macrophage viability (CellTiter-Glo Luminescent Cell Viability Assay)", "setting": "[1]; Cpd 0.04 uM", "value": "6144 and 6304 and 5916"}, {"measurement": "Macrophage viability (CellTiter-Glo Luminescent Cell Viability Assay)", "setting": "[1]; Cpd 0.2 uM", "value": "6040 and 6048 and 6220"}, {"measurement": "Macrophage viability (CellTiter-Glo Luminescent Cell Viability Assay)", "setting": "[1]; Cpd 1 uM", "value": "5376 and 5640 and 5744"}, {"measurement": "Macrophage viability (CellTiter-Glo Luminescent Cell Viability Assay)", "setting": "[1]; Cpd 5 uM", "value": "5092 and 5220 and 5060"}, {"measurement": "Macrophage viability (CellTiter-Glo Luminescent Cell Viability Assay)", "setting": "[1]; Cpd 25 uM", "value": "4508 and 4884 and 4908"}, {"measurement": "Macrophage viability (CellTiter-Glo Luminescent Cell Viability Assay)", "setting": "[1]; Cpd 50 uM", "value": "4404 and 4648 and 4964"}, {"measurement": "toxicity to macrophages", "setting": "[1]; dose of 0.1-50 μM", "value": "obvious toxicity"}, {"measurement": "Mean Fluorescence Intensity (MFI) CD47", "setting": "[2]; 0.008 uM", "value": 8342}, {"measurement": "Mean Fluorescence Intensity (MFI) CD47", "setting": "[2]; 0.04 uM", "value": 8538}, {"measurement": "Mean Fluorescence Intensity (MFI) CD47", "setting": "[2]; 0.2 uM", "value": 8246}, {"measurement": "Mean Fluorescence Intensity (MFI) CD47", "setting": "[2]; 1 uM", "value": 8465}, {"measurement": "Mean Fluorescence Intensity (MFI) CD47", "setting": "[2]; 5 uM", "value": 8263}, {"measurement": "Mean Fluorescence Intensity (MFI) Calreticulin", "setting": "[3]; 0.008 uM", "value": 69.4}, {"measurement": "Mean Fluorescence Intensity (MFI) Calreticulin", "setting": "[3]; 0.04 uM", "value": 72.9}, {"measurement": "Mean Fluorescence Intensity (MFI) Calreticulin", "setting": "[3]; 0.2 uM", "value": 70.6}, {"measurement": "Mean Fluorescence Intensity (MFI) Calreticulin", "setting": "[3]; 1 uM", "value": 77.6}, {"measurement": "Mean Fluorescence Intensity (MFI) Calreticulin", "setting": "[3]; 5 uM", "value": 75.8}]}]}
